Source: the supplement of paper PMC10307832

Assays:
Assay in all cases: relative viability (nuclei count vs DMSO), 5 days (fraction); higher = more cells survive
[1] = compound: Cn1c(Nc2ccc(C(F)(F)F)cc2)nc2cc(Oc3ccnc(-c4ncc(C(F)(F)F)[nH]4)c3)ccc21 [RAF265] + COc1cc2c(Oc3ccc(NC(=O)C4(C(=O)Nc5ccc(F)cc5)CC4)cc3F)ccnc2cc1OCCCN1CCOCC1 [Foretinib] (partner 0.25 µM)
Outline: (§1)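 Five library-drug doses in √10 steps were combined with a fixed anchor-drug dose, or a single drug was given alone, by pin tool to lung cancer cell lines in 1536-well plates the day after seeding. Nuclei were stained and counted after 5 days. Relative viability is the nuclei count in treated wells over that in vehicle wells, taken as the median of duplicate plates.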

[2] = compound: C1=CC=C2C(=C1)C=CC(=C2SSC3=C(C=CC4=CC=CC=C43)O)O [IPA-3] + COc1cc2c(Oc3ccc(NC(=O)C4(C(=O)Nc5ccc(F)cc5)CC4)cc3F)ccnc2cc1OCCCN1CCOCC1 [Foretinib] (partner 0.25 µM)
Outline: as §1

[3] = compound: C1=CC=C2C(=C1)C=CC(=C2SSC3=C(C=CC4=CC=CC=C43)O)O [IPA-3] + Cc1cc(Nc2cc(N3CCN(C)CC3)nc(Sc3ccc(NC(=O)C4CC4)cc3)n2)n[nH]1 [Tozasertib] (partner 0.1 µM)
Outline: as §1

[4] = compound: C1=CC=C2C(=C1)C=CC(=C2SSC3=C(C=CC4=CC=CC=C43)O)O [IPA-3] + CC(=O)Nc1cccc(-n2c(=O)n(C3CC3)c(=O)c3c(Nc4ccc(I)cc4F)n(C)c(=O)c(C)c32)c1 [Trametinib] (partner 0.02 µM)
Outline: as §1

Cell Line	relative viability ([1]; first compound 0.01 µM)	relative viability ([1]; first compound 0.03162 µM)	relative viability ([1]; first compound 0.1 µM)	relative viability ([1]; first compound 0.3162 µM)	relative viability ([1]; first compound 1 µM)	relative viability ([2]; first compound 0.2 µM)	relative viability ([2]; first compound 0.6325 µM)	relative viability ([2]; first compound 2 µM)	relative viability ([2]; first compound 6.325 µM)	relative viability ([2]; first compound 20 µM)	relative viability ([3]; first compound 0.2 µM)	relative viability ([3]; first compound 0.6325 µM)	relative viability ([3]; first compound 2 µM)	relative viability ([3]; first compound 6.325 µM)	relative viability ([3]; first compound 20 µM)	relative viability ([4]; first compound 0.2 µM)	relative viability ([4]; first compound 0.6325 µM)	relative viability ([4]; first compound 2 µM)	relative viability ([4]; first compound 6.325 µM)	relative viability ([4]; first compound 20 µM)
SK-MES-1	1.04	0.932	0.816	0.529	0.369	0.982	0.889	0.892	0.953	1.22	0.991	0.775	0.933	0.804	0.694	0.568	0.528	0.618	0.639	0.659
NCI-H2405	1.03	1.01	1	0.935	0.701	1.12	1.07	1.07	1.07	1.06	0.796	0.755	0.727	0.748	0.774	0.683	0.639	0.511	0.628	0.81
NCI-H2023	0.86	0.875	0.893		0.553	0.856	0.666	0.995	0.853	1.1	0.321	0.347	0.365	0.39	0.424	0.735	0.453	0.659	0.612	0.584
NCI-H838	1.06	1.07	1.01	1.07	0.951	1.22	1	1.1	1.03	1.14	0.32	0.268	0.304	0.282	0.27	0.8	0.519	0.352	0.478	0.517
NCI-H661	1.05	0.944	0.685	0.636	0.521	1.01	0.988	0.995	0.964	0.997	0.328	0.356	0.358	0.338	0.347	0.679	0.584	0.613	0.589	0.555
NCI-H1734	0.858	0.701	0.627	0.647	0.454	0.972	0.803	0.845	0.92	0.934	0.275	0.269	0.251	0.306	0.23	0.661	0.628	0.707	0.618	0.72
NCI-H1650	1.01	1.29	1.35	1.17	0.953	1.27	1.29	1.39	1.03	1.45	0.485	0.414	0.489	0.421	0.517	0.996	0.558	0.579	0.647	0.545
NCI-H596	0.739	0.929	0.866	0.691	0.626	0.691	0.945	0.923	0.881	1.06	0.968	0.907	1.11	1.02	1.04	0.842	0.756	0.861	0.801	0.818
NCI-H1944	0.939	0.913	0.906	0.762	0.461	1.05	0.856	0.879	0.938	0.928	0.263	0.268	0.264	0.246	0.26	0.436	0.433	0.401	0.42	0.415
LK-2	1.07	1.13	0.952	1.05	0.862	1.25	1.31	1.3	1.63	1.5	0.168	0.192	0.176	0.142	0.155	0.904	0.752	0.721	0.846	0.934
HCC-15	1.03	1.04	0.991	0.883	0.673	1.11	0.965	1.03	1.01	1.02	0.61	0.367	0.457	0.431	0.442	0.444	0.352	0.391	0.422	0.436
NCI-H727	0.879	0.895	0.98	0.744	0.454	0.898	0.81	1.17	0.615	0.73	0.659	0.615	0.828	0.529	0.568	0.373	0.409	0.402	0.344	0.417
HOP-62	1.14	0.979	0.973	1.04	0.852	1.28	1.04	1.21	1.09	1.19	0.388	0.312	0.395	0.382	0.402	0.408	0.349	0.414	0.348	0.382
NCI-H3122	0.963	1	1	0.953	0.635	1.01	0.958	0.941	0.955	1.06	0.431	0.4	0.381	0.509	0.428	0.294	0.227	0.262	0.255	0.216
